Inhibition and MIC data for three compounds are collected here from paper PMC7464559, “Synthesis, Optimization, Antifungal Activity, Selectivity, and CYP51 Binding of New 2-Aryl-3-azolyl-1-indolyl-propan-2-ols” (Pharmaceuticals, 2020).

As a reminder, the inhibition is how much of the control response was suppressed. For orientation: MIC means the least concentration at which growth counts as inhibited.

Converted amounts (≈) assume the structure as drawn. Some results are limits rather than exact numbers.

Assay [1] has as its target T1, 17α-hydroxylase/17,20-lyase (CYP17) (Homo sapiens, UniProt P05093).
T1 sequence (P05093 1-508): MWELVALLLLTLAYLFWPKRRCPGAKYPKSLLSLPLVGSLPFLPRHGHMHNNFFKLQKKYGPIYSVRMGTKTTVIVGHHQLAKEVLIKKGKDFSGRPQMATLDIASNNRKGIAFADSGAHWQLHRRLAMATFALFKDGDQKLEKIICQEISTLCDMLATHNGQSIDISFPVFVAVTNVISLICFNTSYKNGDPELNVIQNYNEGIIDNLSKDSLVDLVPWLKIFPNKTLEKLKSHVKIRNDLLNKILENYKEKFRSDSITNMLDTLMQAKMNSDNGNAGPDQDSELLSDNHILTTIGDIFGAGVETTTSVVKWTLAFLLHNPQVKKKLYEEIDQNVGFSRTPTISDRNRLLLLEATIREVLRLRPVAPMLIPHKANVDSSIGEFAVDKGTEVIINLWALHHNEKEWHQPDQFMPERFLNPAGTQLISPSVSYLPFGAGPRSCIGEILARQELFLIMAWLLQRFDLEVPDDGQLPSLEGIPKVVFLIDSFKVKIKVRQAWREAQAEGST
The experiment in a line: In vitro inhibition of 17α-hydroxylase/17,20-lyase. It counts as biochemical. To be noted: at 2.5 µM.
Description: The assay was performed similar to described methods [29, 52]. […] Microsomal protein was added to start the reaction. […] After the addition of 1 mL EtOAc, the vials were shaken then centrifuged. The organic phase was removed, vortexed with phosphate buffer (250 µL), 1 M aqueous HCl (50 µL), and then dried. Aliquots of 25 µL methanol, containing 250 pmol of fluorocortisol acetate as internal standard, were added to the extracts. The samples (20 µL) were submitted to HPLC (RP-8 column, methanol/water 1:1, v/v) and measured using UV (240 nm).

Assay [2] concerns CA98005 (Candida albicans). The experiment in a line: Anti-Candida in vitro assay, CA98005. The conditions noted are these: Candida albicans CA98005, mean of triplicate; read-out: MIC (IC80) CA98005. The class given is cell-based. In outline:
(§1)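 In this assay, compounds diluted in MOPS-buffered RPMI 1640 act on 10^3 cells/mL for 24 h at 37 °C. Growth is scored fluorimetrically with Alamar Blue (4 h, 550/590 nm).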

The subject of assay [3] is ATCC2091 Candida albicans strain. The experiment in a line: Anti-Candida in vitro assay, ATCC2091. It counts as cell-based. To be noted: Candida albicans ATCC2091, mean of triplicate; read-out: MIC (IC80) ATCC2091. A digest of the protocol: as §1
The test system of assay [4] is ATCC90018 Candida parapsilosis strain. The experiment in a line: Anti-Candida in vitro assay, ATCC90018. The conditions noted are these: Lodderomyces parapsilosis; Candida parapsilosis ATCC90018, mean of triplicate; read-out: MIC (IC80) ATCC90018. It counts as cell-based. A digest of the protocol: as §1
The subject of a further assay is CK98003 (Candida krusei). Nature of the assay: Anti-Candida in vitro assay, CK98003. The class given is cell-based. To be noted: Pichia kudriavzevii; Candida krusei CK98003, mean of triplicate; read-out: MIC (IC80) CK98003. A digest of the protocol: as §1
Another assay relates to CK98002 (Candida krusei). Nature of the assay: Anti-Candida in vitro assay, CK98002. To be noted: Pichia kudriavzevii; Candida krusei CK98002, mean of triplicate; read-out: MIC (IC80) CK98002. The class given is cell-based. A digest of the protocol:
as §1

The test system of assay [5] is CL98001 (Candida lusitaniae). The experiment in a line: Anti-Candida in vitro assay, CL98001. The class given is cell-based. The conditions noted are these: Clavispora lusitaniae; Candida lusitaniae CL98001, mean of triplicate; read-out: MIC (IC80) CL98001. A digest of the protocol: as §1
In assay [6] the test system is CA98002 (Candida albicans). Nature of the assay: Anti-Candida in vitro assay, CA98002. The class given is cell-based. The conditions noted are these: Candida albicans CA98002, mean of triplicate; read-out: MIC (IC80) CA98002. A digest of the protocol: as §1
Assay [7] relates to ATCC6258 Candida krusei strain. The experiment in a line: Anti-Candida in vitro assay, ATCC6258. It counts as cell-based. The conditions noted are these: Pichia kudriavzevii; Candida krusei ATCC6258, mean of triplicate; read-out: MIC (IC80) ATCC6258. In outline: as §1

For `O[C@@](Cn1cncn1)(Cn1ccc2ccccc21)c1ccc(Cl)cc1Cl` [(+)-(R)-8g], the inhibition at […] in [1] was < 5%. For the same compound, the MIC was 2.71 µg/mL (≈ 6.99 µM) in [2]; 1.01 µg/mL (≈ 2.6 µM) in [3]; > 38.7 µg/mL in assay [4]; 19.4 µg/mL (≈ 50 µM) with CK98003 (Candida krusei); 22.1 µg/mL (≈ 57 µM) with CK98002 (Candida krusei); 9.68 µg/mL (≈ 25 µM) in assay [5]. Also, the MIC in [6] stood at 2.75 µg/mL (≈ 7.1 µM); in assay [7] it was 24.4 µg/mL (≈ 63 µM).

Turning to `OC(Cn1cncn1)(Cn1ccc2ccccc21)c1ccc(Cl)cc1Cl` (stereo not drawn) [Compound 8g, 2-(2,4-Dichlorophenyl)-3-(1H-indol-1-yl)-1-(1H-1,2,4-triazol-1-yl)-propan-2-ol], the inhibition at […] in assay [1] was < 10%. Further, the MIC was < 0.004 µg/mL in assay [2]; < 0.004 µg/mL in assay [3]; 0.15 µg/mL (≈ 0.387 µM) in [4]; 3.56 µg/mL (≈ 9.2 µM) with CK98003 (Candida krusei); 2.79 µg/mL (≈ 7.2 µM) with CK98002 (Candida krusei); < 0.004 µg/mL in assay [5]. The minimal inhibitory concentration (MIC) in assay [6] is < 0.004 µg/mL; in assay [7], 0.08 µg/mL (≈ 0.207 µM).

As for `O[C@](Cn1cncn1)(Cn1ccc2ccccc21)c1ccc(Cl)cc1Cl` [(−)-(S)-8g], the inhibition at […] in [1] is < 5%. In addition, the MIC is 0.026 µg/mL (≈ 0.0671 µM) in [2]; < 0.039 µg/mL in assay [3]; 0.027 µg/mL (≈ 0.0697 µM) in [4]; 0.039 µg/mL (≈ 0.101 µM) with CK98003 (Candida krusei); 0.022 µg/mL (≈ 0.0568 µM) in the assay with CK98002 (Candida krusei); 0.024 µg/mL (≈ 0.062 µM) in [5]. Moreover, the MIC in assay [6] is < 0.039 µg/mL; in assay [7], 0.167 µg/mL (≈ 0.431 µM).
